The source of these data is PubChem BioAssay (NCI).

Structures are written as SMILES. Values joined by “and” are separate entries in the source; they are usually repeats but may differ in a detail not shown here. Equal values may be shown once.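 Method: 48-hour compound exposure of cells in 96-well plates, five concentrations, linear interpolation of endpoints. GI50 = concentration required for 50% inhibition of growth. TGI: concentration producing complete growth inhibition.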

For this assay, the system named is MDA-MB-468 breast. The assay is described as follows: NCI-60 cell line screen, 48 h.
In the case of `CCNc1nc(-c2ccc(Cl)c(OC)c2)c(-c2ccnc(NCCNS(=O)(=O)c3ccc(Cl)cc3)n2)s1`, the GI50 was 1.96 µM and the TGI stood at 5.61 µM.
For `Cc1c(-c2ccc(N3CCc4cccc(C(=O)Nc5nc6ccccc6s5)c4C3)nc2C(=O)O)cnn1CC12CC3CC(CC(C3)C1)C2`, the GI50 was 6.58 µM and the TGI stood at 26.5 µM.
For `Cc1cc(N(CCCl)CCCl)ccc1/C=N\NC(=O)c1cccnc1`, the GI50 was 1.46 µM and the TGI was determined as 5.41 µM.
For the compound `O=C(Nc1cccc(C(F)(F)F)c1)Nc1cc(S(=O)(=O)NC2CC2)ccc1-c1ccsc1`, the GI50 was 3.1 µM and the TGI worked out at 13.8 µM.
For `CN(C)C(=O)c1cc2cnc(Nc3ccc(N4CCNCC4)cn3)nc2n1C1CCCC1` the same measures were 13.5 µM and 37.6 µM.
Regarding `CS(=O)(=O)Nc1ccc(Nc2c3ccccc3nc3cc(Cl)ccc23)cc1`, the GI50 was 1.99 µM and the TGI was determined as 9.88 µM.
For the compound `CCc1c[nH]c2ncnc(N3CC[C@](N)(CNC(=O)c4ccc(F)cc4F)C3)c12`, the GI50 was 0.139 µM and the TGI was determined as 2.23 µM.
Taken in the same sequence, the figures for `CN1CCN(Cc2ccc(NC(=O)c3cncc(C#Cc4cnc5ccc(NCCCO)nn45)c3)cc2C(F)(F)F)CC1` were 0.087 µM and 0.228 µM.
Taken in the same sequence, the figures for `CC(=O)OC1CCC2(C)C(=CCC3C4CC(CN5CC5)C(=O)C4(C)CCC32)C1` (centres undefined) were 1.68 µM and 4.49 µM.
Taken in the same sequence, the figures for `COc1ccc(S(=O)(=O)NCCCNc2nccc(-c3c(-c4ccc(F)cc4)nc4sccn34)n2)cc1` were 4.3 µM and more than 100 µM.
On to `COc1cc(-c2nn(-c3cccc(NC(=O)c4cccc(C(F)(F)F)c4)c3)cc2-c2ccncc2)ccc1Cl`, for which the GI50 is 1.32 µM and the TGI came to 4.56 µM.
Taken in the same sequence, the figures for `O=C(NCc1cccnc1)c1ccc([N+](=O)[O-])o1` were 5.31 µM and more than 29 µM.
For `COc1cc2c(cc1OCCCN1CCN(CCCn3c4ccccc4c4ccccc43)CC1)N=C[C@@H]1CCCN1C2=O` the same measures were 0.0238 µM and 0.0677 µM.
Taken in the same sequence, the figures for `Cc1cccc(Cc2cnc(NC(=O)CCCOc3ccc(Cl)cc3)s2)c1` were 1.74 µM and more than 100 µM.
For `Fc1ccc(-c2cc3nc(C(Cl)Cl)nc(-c4ccc(F)cc4)n3n2)cc1`, the GI50 is 0.242 µM and the TGI is 1.08 µM.
In the case of `CN1CCN(Cc2ccc(NC(=O)c3cncc(C#Cc4cnc5cccnn45)c3)cc2C(F)(F)F)CC1`, the GI50 was 1.97 µM and the TGI stood at 8.22 µM.
On to `O=C(Nc1cccc(C(F)(F)F)c1)Nc1ccc(OCc2nnc(-c3ccccc3)o2)c(F)c1`, for which the GI50 was 2.57 µM and the TGI came out at 13.9 µM.
Taken in the same sequence, the figures for `Cn1c(=O)c(Oc2ccc(F)cc2F)cc2cnc(NC3CCC(O)CC3)nc21` (centres undefined) were more than 25 µM and more than 25 µM.
For `CCn1c(SC)nnc1-c1cc2c([nH]c3ccccc32)c(-c2cccc(O)c2)n1` the same measures were 0.598 µM and 8.22 µM.
As to `O=C1COc2c(CCNCCN(C(=O)CCNCCc3ccc(Cl)c(Cl)c3)C3CCCCC3)ccc(O)c2N1`, the GI50 was 2.77 µM and the TGI was determined as 9.42 µM.
For `COc1cc(/C=N/n2cnc3oc(-c4ccccc4)cc3c2=N)cc(CN2CCCCC2)c1O` the same measures were 1.8 µM and 3.65 µM.
Taken in the same sequence, the figures for `CC[C@@H](CO)Nc1ccc2ncc(C#Cc3cncc(C(=O)Nc4ccc(CN5CCN(C)CC5)c(C(F)(F)F)c4)c3)n2n1` were 0.0779 µM and 0.194 µM.
For `C/C=C\C(=O)O[C@@H]1CC2O[C@@H]3C=C(C)C(=O)C[C@]3(C)[C@]1(C)[C@]21CO1` the same measures were 0.567 µM and 2.13 µM.
`C/C(=N\NC(=O)c1ccncc1)c1ccccc1O`: the GI50 was 2.04 µM and the TGI was 9.06 µM.
Taken in the same sequence, the figures for `O=C1C(=O)c2c(ccc3ccccc23)-c2ccccc21` were 1.56 µM and 3.26 µM.
Taken in the same sequence, the figures for `OCCn1c(-c2ccncc2)c(-c2ccc(F)cc2)c2ncccc21` were more than 25 µM and more than 25 µM.
For `Nc1ccc(N)c2c1C(=O)c1cccc([N+](=O)[O-])c1C2=O` the same measures were 3.41 µM and more than 56.8 µM.
With `CCC(=C(c1ccc(OCCN(CC)CC)cc1)c1ccc(OCCN(CC)CC)cc1)c1ccc(Cl)cc1`, the GI50 is 0.535 µM and the TGI worked out at 1.05 µM.
Regarding `c1csc(-c2[nH]nc3c2CCc2ccccc2-3)c1`, the GI50 was 0.175 µM and the TGI amounted to 0.494 µM.
Taken in the same sequence, the figures for `Oc1ccc(/C=N/Nc2nnc(N/N=C/c3ccc(O)cc3O)c3ccccc23)c(O)c1` were 0.355 µM and 1.77 µM.
For `O=C(c1ccccc1)c1ccc(N2C(=O)C3C4c5ccccc5C(/C=C/C(=O)c5ccccn5)(c5ccccc54)C3C2=O)cc1` (centres undefined) the same measures were 2.39 µM and 6.99 µM.
For `O=C(COC(=O)[C@H](C[Se][Se]C[C@H](NC(=O)c1ccc(Br)cc1F)C(=O)OCC(=O)c1ccc(F)cc1)NC(=O)c1ccc(Br)cc1F)c1ccc(F)cc1` the same measures were 0.58 µM and 1.68 µM.
Regarding `COc1ccc(C[C@H](N)C(=O)N[C@@H]2[C@@H](CO)OC(n3cnc4c(N(C)C)ncnc43)[C@@H]2O)cc1` (some centres undefined), the GI50 is 0.134 µM and the TGI is 0.678 µM.
For the compound `COc1cc2nccc(Oc3ccc(NC(=O)C4(C(=O)Nc5ccc(F)cc5)CC4)cc3)c2cc1OC`, the GI50 is > 10 µM and 4.35 µM; the TGI is > 10 µM and 64.5 µM.
Take `COc1cc(/C=C/C(=O)c2c(-c3ccc(Cl)cc3)nc3sc(C)nn23)cc(OC)c1OC`: the GI50 is 6.47 µM and the TGI was more than 100 µM.
Turning to `COc1ccc(Cl)cc1Nc1nc(C(F)(F)F)ccc1C(=O)N/N=C/c1ccc(Cl)cc1`, the GI50 was 3.96 µM and the TGI was more than 100 µM.
Taken in the same sequence, the figures for `CC(=O)Nc1ccc(C(=O)COc2cccc(/C=C3\CCc4ccccc4C3=O)c2)cc1` were 3.63 µM and more than 100 µM.
